Measurements: patent US20240358722A1, “METHODS OF ADMINISTERING FEDRATINIB” (Impact Biomedicines, Inc., priority 2021, published 2024)
Structures can show the parent of a compound that is named as a salt.

Experiments:
[1] = Population pharmacokinetics analysis of cumulative data from 452 patients; assay type: in vivo, human; conditions: age 20 to 95 years, body weight 40 to 135 kg
JAK2V617F-driven MPNs = conditions: mouse models of JAK2V617F-driven MPNs; cited from earlier work
[2] = Effect of meals on fedratinib pharmacokinetics; assay type: in vivo, human; conditions: high-fat, high-calorie meal (approx. 815 calories, 52% fat) and low-fat, low-calorie meal (approx. 162 calories, 6% fat)
Procedure: (§1) Thus, fedratinib can be taken with or without regard to food. Moreover, the most frequently reported gastrointestinal (GI)-related treatment-emergent adverse events, such as nausea and vomiting, are less frequent in the fed state (62.5% and 16.7%,) than in the fasting state (87.5% and 66.7%) in subjects receiving a 500 mg fedratinib. Therefore, administration in the fed state, i.e., with nutritional supplement can reduce the incidence of nausea and vomiting.

[3] = GI-related treatment-emergent adverse events, fed vs fasting state; assay type: in vivo, human; conditions: subjects receiving 500 mg fedratinib
Procedure: as §1

[4] = test system: patient-derived cell lines expressing JAK2V617F and cells engineered to express WT JAK2 or JAK2V617F; conditions: cited from earlier work
[5] = Safety and tolerability in the Phase 1 study; assay type: in vivo, human; conditions: healthy adult subjects, fedratinib 400 mg, Parts 1 and 2
Text: During the study, blood samples will be collected at prespecified times for PK. Subject safety will be monitored throughout the study. The study will be conducted in compliance with the International Council on Harmonization (ICH) of Technical Requirements for Registration of Pharmaceuticals for Human Use/Good Clinical Practice (GCP) and applicable regulatory requirements.

[6] = Phase 1 crossover relative bioavailability study, Part 1: fedratinib plasma PK; assay type: in vivo, human; conditions: for AUC0-t / Cmax: plasma
Procedure: (§2) An open-label, single-site, 2-part crossover study will be conducted in healthy adult subjects. This study will evaluate the RBA of 400 mg fedratinib when administered orally as contents of capsules dispersed in a nutritional supplement or via NG tube or administered orally as intact capsules with a nutritional supplement as a divided dose (200 mg BID) in comparison to intact capsules with a nutritional supplement. Each study part will consist of a randomized, multiple-sequence, open-label design. The study parts can be run in any order or in parallel. Subjects may participate in 1 part only. Each study part will consist of Screening, a Treatment phase (including baseline), and a Follow-up phone call. There will be a washout period of at least 12 days between each dose of fedratinib.
(§3) Part 1 will consist of a randomized, 2-period, 2-sequence, open-label design. Subjects will be screened for eligibility. Subjects who meet all inclusion criteria and none of the exclusion criteria will return to the study center on Day-1 for protocol-specified assessments and the start of domiciling; subjects will remain domiciled at the study center throughout both study periods.
(§4) On the evening before each dosing, all subjects will begin an overnight fast of at least 10 hours prior to dosing. No food or beverages (except water and any nutritional supplement administered with IP) will be allowed for at least 4 hours after dosing. Water is allowed as desired except for 1 hour before and 1 hour after each dosing. Each dose, with the exception of Treatment 2B, will be administered orally with approximately 240 mL noncarbonated, room temperature water. Dose modifications or interruptions are not permissible in this study.
Each subject will receive the following treatments across 2 study periods: • Treatment 1A=oral administration of a single 400-mg dose of fedratinib (4×100-mg capsules) with a nutritional supplement (reference) • Treatment 1B=oral administration of a single 400-mg dose of fedratinib with contents of 4×100-mg capsules dispersed in a nutritional supplement (test)
(§5) All planned doses will be administered with a commercially available nutritional supplement (e.g., Ensure Plus® or Boost Plus®). The chosen nutritional supplement will be used throughout the study. The volume of nutritional supplement to be administered with each dose will be (e.g., approximately 180 mL).
(§6) Blood samples (approximately 3 mL each) for the measurement of fedratinib concentrations in plasma will collected at the following time points: • Treatment 1A, 1B, 2A and 2B: pre dose (0 hour) and at 0.5, 1, 1.5, 2, 3, 4, 6, 8, 12, 24, 48, 72, 120, 168, 192, and 240 hours post dose. • Treatment 2C: pre dose (0 hour) and at 0.5, 1, 1.5, 2, 3, 4, 6, 8, 12 (pre dose of the second dose), 12.5, 13, 13.5, 14, 15, 16, 18, 24, 48, 72, 120, 168, 192, and 240 hours post dose of the first dose.
(§7) Fedratinib plasma PK concentrations will be measured using a validated liquid chromatography tandem mass spectrometry assay
Fedratinib plasma PK parameters will be calculated using noncompartmental methods. The following key PK parameters will be estimated as allowed by the data: • Maximum observed plasma concentration (Cmax) • Area under the plasma concentration-time curve (AUC) from time zero to the last
To estimate the RBA for Treatments 1B in comparison with Treatment 1A, an ANOVA with treatment, period, and sequence as fixed effects, and subject nested within sequence as a random effect will be performed on the natural log-transformed Cmax, AUC (0-T), and AUC (INF). The geometric means along with ratios of the geometric means (test/reference) and associated 90% confidence intervals will be presented.

STAT3/STAT5 = conditions: patient-derived cell lines expressing JAK2V617F and cells engineered to express WT JAK2 or JAK2V617F; cited from earlier work
[7] = Phase 1 crossover relative bioavailability study, Part 2: fedratinib plasma PK; assay type: in vivo, human; conditions: for AUC0-∞: geometric mean, one participant excluded (pAUCe >20%); for AUC0-t / Cmax: n = 30, geometric mean, plasma
Procedure: as §2
as §3, with “Part 2” for “Part 1”, “randomized, 3-period, 6-sequence,” for “randomized, 2-period, 2-sequence,”, “throughout all” for “throughout both”
as §4
Each subject will receive the following treatments across 3 study periods: • Treatment 2A=oral administration of a single 400-mg dose of fedratinib (4×100-mg capsules) with a nutritional supplement (reference) • Treatment 2B=a single 400-mg dose of fedratinib, administered via NG tube as contents from 4×100-mg capsules dispersed into a nutritional supplement (test) • Treatment 2C=oral administration of 400-mg fedratinib with a nutritional supplement, given as a divided dose (i.e., BID [2×100-mg capsules each]) (test)
Prior to administration of Treatment 2B, a nasogastric tube will be placed and an X-ray(s) will be performed to confirm correct placement of the nasogastric tube. Following administration of Treatment 2B, the nasogastric tube will be flushed with a volume of sterile water for irrigation equal to approximately 60 mL. Lidocaine gel or a suitable therapeutic equivalent may be used to reduce participant discomfort during the nasogastric tube insertion procedure. The timing from start of the nasogastric tube placement to dosing will be up to 4 hours. Actual time of dose administration will be referred to as “0 hour.”
as §5, §6, §7
Fedratinib plasma PK parameters will be calculated using noncompartmental methods. […]

[8] = Treatment 1A: fedratinib 400 mg oral capsules with nutritional supplement, n = 27, geometric mean
[9] = Treatment 1B (dispersed in nutritional supplement) vs Treatment 1A (intact capsules), 400 mg single dose
[10] = Treatment 1B: fedratinib 400 mg dispersed in supplement, oral, n = 27, geometric mean
[11] = Treatment 2A: fedratinib 400 mg oral capsules with nutritional supplement
[12] = Treatment 2B (via NG tube) vs Treatment 2A (capsules orally), 400 mg single dose
[13] = Treatment 2B: fedratinib 400 mg in supplement via NG tube
[14] = Treatment 2C (divided dose) vs Treatment 2A (single dose)
[15] = Treatment 2C: fedratinib 2 × 200 mg capsules, divided dose

Cc1cnc(Nc2ccc(OCCN3CCCC3)cc2)nc1Nc1cccc(S(=O)(=O)NC(C)(C)C)c1 [fedratinib, N-tert-butyl-3-[(5-methyl-2-{[4-(2-pyrrolidin-1-ylethoxy)phenyl]amino}pyrimidin-4-yl)amino] benzenesulfonamide dihydrochloride monohydrate]
effect on fedratinib PK of age, race, sex, body weight, mild or moderate hepatic impairment, mild renal impairment [1]: no clinically meaningful effect
disease-associated symptoms, including leukopenia, anemia, splenomegaly, and fibrosis (JAK2V617F-driven MPNs): improved
phosphorylation of STAT⅗ (JAK2V617F-driven MPNs): blocked
survival (JAK2V617F-driven MPNs): increased
effect on the pharmacokinetics of fedratinib of administration with a meal [2]: No clinically meaningful effect
frequency of nausea (GI-related treatment-emergent adverse event) ([3]; fasting state): 87.5%
frequency of vomiting (GI-related treatment-emergent adverse event) ([3]; fasting state): 66.7%
frequency of nausea (GI-related treatment-emergent adverse event) ([3]; fed state): 62.5%
frequency of vomiting (GI-related treatment-emergent adverse event) ([3]; fed state): 16.7%
apoptosis [4]: increased
cell proliferation [4]: inhibited
safety signals or treatment-emergent serious adverse events [5]: No new safety signals or treatment-emergent serious adverse events were reported
AUC0-∞ ([6]; Treatment 1A: fedratinib 400 mg oral capsules with nutritional supplement, geometric mean, one participant excluded (pAUCe >20%)): 22260 ng·h/mL
AUC0-t [6, 8]: 20127 ng·h/mL
Cmax [6, 8]: 1319 ng/mL
ratio of geometric means (test/reference), AUC (0-T) [6, 9]: 102%
ratio of geometric means (test/reference), AUC (INF) [6, 9]: 103%
ratio of geometric means (test/reference), Cmax [6, 9]: 108%
AUC0-∞ [6, 10]: 22838 ng·h/mL
AUC0-t [6, 10]: 20598 ng·h/mL
Cmax [6, 10]: 1425 ng/mL
phosphorylation of STAT3/STAT5 (STAT3/STAT5): reduced
differences in exposure to fedratinib compared to a single dose of 4×100 mg capsules administered orally ([7]; 400 mg, healthy adult participants, with nutritional supplement, via NG tube, or divided capsule dose): no significant differences
AUC0-∞ [7, 11]: 24963 ng·h/mL
AUC0-t [7, 11]: 22683 ng·h/mL
Cmax [7, 11]: 1388 ng/mL
ratio of geometric means between test and reference, AUC (0-T) [7, 12]: 84%
ratio of geometric means between test and reference, AUC (INF) [7, 12]: 85%
ratio of geometric means between test and reference, Cmax [7, 12]: 90%
AUC0-∞ [7, 13]: 21334 ng·h/mL
AUC0-t [7, 13]: 19111 ng·h/mL
Cmax [7, 13]: 1246 ng/mL
ratio of geometric means between test and reference, AUC (0-T) [7, 14]: 84%
ratio of geometric means between test and reference, AUC (INF) [7, 14]: 85%
ratio of geometric means between test and reference, Cmax [7, 14]: 46%
AUC0-∞ [7, 15]: 21304 ng·h/mL
AUC0-t [7, 15]: 19002 ng·h/mL
Cmax [7, 15]: 641.4 ng/mL
